Source: PMC10065799, “High-throughput profiling of sequence recognition by tyrosine kinases and SH2 domains using bacterial peptide display” (eLife, 2023)
Blank lines part the entries; values can stand above or below the molecule they belong to.

Experiments:
c-Src kinase domain [1] = biological target: T1, c-Src kinase domain (Homo sapiens, UniProt P12931); assay: pTyr-Var library bacterial peptide display kinase screen (enrichment scores); type: biochemical;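 on c-Src hit?: Hit requires p below 0.05 and at least twofold variant vs reference change plus filters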;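 on screen: log2 fold change in enrichment of variant over reference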
c-Src kinase domain [2] = biological target: T1, c-Src kinase domain; assay: RP-HPLC assay to measure peptide phosphorylation kinetics; type: biochemical; conditions: purified peptide substrate
Fer kinase domain = assay: pTyr-Var library bacterial peptide display kinase screen (enrichment scores); type: biochemical, mouse;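 on Fer hit?: Hit requires p below 0.05 and at least twofold variant vs reference change plus filters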
AncSZ kinase domain = assay: as above; type: biochemical;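 on AncSZ hit?: Hit requires p below 0.05 and at least twofold variant vs reference change plus filters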
Hck kinase domain = assay: as above; type: biochemical, human
Fyn kinase domain [3] = assay: as above; type: biochemical, human
FGFR1 kinase domain [4] = assay: as above; type: biochemical, human
Fes = assay: as above; type: biochemical
MERTK kinase domain = assay: as above; type: biochemical, human
c-Src SH2 domain = c-Src SH2 domain (Homo sapiens, UniProt P12931); assay: pTyr-Var library SH2 domain screen with SH2-dynabeads (enrichment scores); conditions: sheet c-Src
EPHB2 kinase domain = assay: pTyr-Var library bacterial peptide display kinase screen (enrichment scores); type: biochemical, human
Grb2 SH2 domain = assay: pTyr-Var library SH2 domain screen with SH2-dynabeads (enrichment scores)
FGFR3 kinase domain = assay: pTyr-Var library bacterial peptide display kinase screen (enrichment scores); type: biochemical, human
c-Abl kinase domain = biological target: T2, c-Abl kinase domain (Mus musculus, UniProt P00520); assay: as above; type: biochemical
T2 sequence (P00520 242-493 limits assumed): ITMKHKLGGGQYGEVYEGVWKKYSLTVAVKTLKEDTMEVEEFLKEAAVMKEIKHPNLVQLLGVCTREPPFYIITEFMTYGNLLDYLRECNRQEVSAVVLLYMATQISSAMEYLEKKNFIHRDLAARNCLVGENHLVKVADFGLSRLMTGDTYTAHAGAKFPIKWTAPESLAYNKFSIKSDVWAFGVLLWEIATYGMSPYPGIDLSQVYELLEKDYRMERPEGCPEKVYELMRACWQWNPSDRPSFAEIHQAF

Jak2 = assay: as above; type: biochemical, human
SHP2 C-SH2 domain = assay: pTyr-Var library SH2 domain screen with SH2-dynabeads (enrichment scores)
EPHB1 kinase domain = assay: pTyr-Var library bacterial peptide display kinase screen (enrichment scores); type: biochemical, human
FGFR1 kinase domain [5] = assay: LC-MS assay of intact SHP2 protein phosphorylation; type: biochemical, human; conditions: SHP2 10 μM, kinase 1 μM, 1 hr, 37 °C, 2 to 3 measurements
Protocol: (§1) The same protocol used to express and purify SH2 domains, excluding co-expression of BirA and addition of biotin, was applied to the expression and purification of the SHP2 variants.
(§2) To pre-activate the kinases, 1 μM of each purified kinase domain was preincubated at 37 °C for 30 min in the same buffer conditions used in the kinase domain peptide display screen, with 1 mM ATP. The reaction of the kinase with SHP2 was initiated with the addition of 10 μM SHP2, and the mixture was incubated in 37 °C for 1 hr. To terminate the reaction, the mixture was quenched with 200 mM EDTA. The reaction mixture was diluted 3:2 in water and injected onto a BEH C8 column (Waters) on a UPLC-MS system (Xevo QToF, Waters). Reverse-phase liquid chromatography was carried out at 0.3 mL/min with solvents A (H2O, 0.1% (v/v) formic acid) and B (acetonitrile, 0.1% (v/v) formic acid). Proteins were eluted over a gradient of 5–95% B for 8.5 min. The protein peak on the chromatogram was deconvoluted using the MaxEnt1 algorithm from 32,000–65,000 Da with a resolution of 1 Da/channel over 30 iterations. Peaks were chosen according to the theoretical MW of the protein within a range of 5 Da, and integrated for the signal intensity.

Fyn kinase domain [6] = assay: LC-MS assay of intact SHP2 protein phosphorylation; type: biochemical, human; conditions: SHP2 10 μM, kinase 1 μM, 1 hr, 37 °C, 2 to 3 measurements
Protocol: as §1, §2

[7] = mean of log2 of enrichment over R1-R4
[8] = pTyr-Var library, enrichment score, replicate 1
[9] = pTyr-Var library, enrichment score, replicate 3
[10] = pTyr-Var library, enrichment score, replicate 4
[11] = variant versus reference peptide
[12] = variant versus reference peptide, significant hit TRUE/FALSE
[13] = mean of log2(variant) minus mean of log2(reference)
[14] = mean of log2 enrichment of variant peptide, n = 5
[15] = mean of log2 enrichment of variant peptide, n = 4
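Wherever Fyn hit? is given: Hit requires p below 0.05 and at least twofold variant vs reference change plus filters.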

Molecule: Ac-WDLPEYSFKDP-NH2 [ITGA3_Y237_S235P_YF, pTyr-Var library variant phosphosite peptide]
Screen (c-Src kinase domain [1]; sheet "Src", effect of the variant peptide relative to its reference peptide in the pTyr-Var library screen): -1.08 | Phosphorylation Rate (c-Src kinase domain [2]): 0.153 s⁻¹

Molecule: GMAHNYRNRSQ [AASS_Y188_S191R]
Fer mean of log2(enrichment) (Fer kinase domain; [7]): -1.585 | Fer enrich. R1 (Fer kinase domain; [8]): 0.273 | Fer enrich. R3 (Fer kinase domain; [9]): 0.5188 | Fer enrich. R4 (Fer kinase domain; [10]): 0.4406 | Fer difference (mean log2 variant - mean log2 reference) (Fer kinase domain; [11]): -0.1949 | Fer hit? (Fer kinase domain; [12]): FALSE | AncSZ mean of log2(enrichment) (AncSZ kinase domain; mean of log2 of enrichment over R1-R5): -0.8229 | AncSZ enrich. R1 (AncSZ kinase domain; [8]): 0.4421 | AncSZ enrich. R3 (AncSZ kinase domain; [9]): 0.7733 | AncSZ enrich. R4 (AncSZ kinase domain; [10]): 0.7058 | AncSZ enrich. R5 (AncSZ kinase domain; pTyr-Var library, enrichment score, replicate 5): 0.7616 | AncSZ difference (mean log2 variant - mean log2 reference) (AncSZ kinase domain; [11]): -0.03377 | AncSZ hit? (AncSZ kinase domain; [12]): FALSE | Hck mean of log2(enrichment) (Hck kinase domain; mean of log2(variant) / mean of log2(reference), R1-R4): 0.5234 | Hck enrich. R1 (Hck kinase domain; [8]): 0.3364 | Hck enrich. R3 (Hck kinase domain; [9]): 0.4885 | Hck enrich. R4 (Hck kinase domain; [10]): 0.9262 | Hck difference (variant - reference) (Hck kinase domain; [11]): 0.1099 | Hck hit? (Hck kinase domain; [12]): FALSE | c-Src mean of log2(enrichment) (c-Src kinase domain [1]; [7]): -1.078 | c-Src enrich. R1 (c-Src kinase domain [1]; [8]): 0.5961 | c-Src enrich. R3 (c-Src kinase domain [1]; [9]): 0.5045 | c-Src enrich. R4 (c-Src kinase domain [1]; [10]): 0.4581 | c-Src difference (mean log2 variant - mean log2 reference) (c-Src kinase domain [1]; [11]): 0.3253 | c-Src hit? (c-Src kinase domain [1]; [12]): FALSE | Fyn mean of log2(enrichment) (Fyn kinase domain [3]; [7]): -1.18 | Fyn enrich. R1 (Fyn kinase domain [3]; [8]): 0.3131 | Fyn enrich. R3 (Fyn kinase domain [3]; [9]): 0.443 | Fyn enrich. R4 (Fyn kinase domain [3]; [10]): 0.884 | Fyn difference (mean log2 variant - mean log2 reference) (Fyn kinase domain [3]; [11]): 0.1477 | Fyn hit? (Fyn kinase domain [3]; [12]): FALSE | difference (FGFR1 kinase domain [4]; [13]): -0.1712 | mean of log2(variant) (FGFR1 kinase domain [4]; [14]): -1.608 | var. mean (FGFR1 kinase domain [4]; pTyr-Var library, variant peptide enrichment, mean of n = 5): 0.3444 | Fes mean of log2(enrichment) (Fes; mean of log2 of enrichment over R1-R6): -0.768 | Fes difference (mean log2 variant - mean log2 reference) (Fes; [11]): 0.4232 | difference (MERTK kinase domain; [13]): 0.1021 | mean of log2(variant) (MERTK kinase domain; [15]): -1.214 | difference (c-Src SH2 domain; [13]): -0.07136 | mean of log2(variant) (c-Src SH2 domain; mean of log2 enrichment of variant peptide, R1-R3): -1.19 | difference (EPHB2 kinase domain; [13]): -0.2462 | mean of log2(variant) (EPHB2 kinase domain; [15]): -1.376 | difference (Grb2 SH2 domain; Grb2 SH2, mean of log2(variant) minus mean of log2(reference)): -0.06902 | mean of log2(variant) (Grb2 SH2 domain; Grb2 SH2, mean of log2 enrichment of variant, R1-R3): -0.6418 | hit? (Grb2 SH2 domain; Grb2 SH2, variant versus reference significant hit call): FALSE | difference (FGFR3 kinase domain; [13]): -0.0947 | mean of log2(variant) (FGFR3 kinase domain; [14]): -1.326 | c-Abl mean of log2(enrichment) (c-Abl kinase domain; [7]): -0.8983 | c-Abl enrich. R1 (c-Abl kinase domain; [8]): 0.3489 | c-Abl enrich. R3 (c-Abl kinase domain; [9]): 0.6113 | c-Abl enrich. R4 (c-Abl kinase domain; [10]): 0.4438 | c-Abl hit? (c-Abl kinase domain; [12]): FALSE | Jak2 mean of log2(enrichment) (Jak2; mean of log2 of enrichment over R1-R3): -1.127 | Jak2 enrich. R3 (Jak2; [9]): 0.7448 | Jak2 difference (mean log2 variant - mean log2 reference) (Jak2; [11]): 0.1075 | Jak2 hit? (Jak2; [12]): FALSE | difference (SHP2 C-SH2 domain; SHP2-C SH2, mean of log2(variant) minus mean of log2(reference)): -0.6126 | mean of log2(variant) (SHP2 C-SH2 domain; SHP2-C SH2, mean of log2 enrichment of variant, R1-R3): -1.425 | hit? (SHP2 C-SH2 domain; SHP2-C SH2, variant versus reference significant hit call): FALSE | difference (EPHB1 kinase domain; [13]): 0.7368 | mean of log2(variant) (EPHB1 kinase domain; [15]): -1.347

phosphorylation of intact SHP2 by FGFR1 (FGFR1 kinase domain [5]): dramatically enhanced phosphorylation | phosphorylation of intact SHP2 by Fyn (Fyn kinase domain [6]): dramatically enhanced phosphorylation
B1: SHP2 D61N: human full-length SHP2 (residues 1–526; C459E, D61N) (protein, UniProt Q06124 2-593, looked up, variant C459E D61N)
Tyrosine-protein phosphatase …: TSRRWFHPNITGVEAENLLLTRGVDGSFLARPSKSNPGDFTLSVRRNGAVTHIKIQNTGNYYDLYGGEKFATLAELVQYYMEHHGQLKEKNGDVIELKYPLNCADPTSERWFHGHLSGKEAEKLLTEKGKHGSFLVRESQSHPGDFVLSVRTGDDKGESNDGKSKVTHVMIRCQELKYDVGGGERFDSLTDLVEHYKKNPMVETLGTVLQLKQPLNTTRINAAEIESRVRELSKLAETTDKVKQGFWEEFETLQQQECKLLYSRKEGQRQENKNKNRYKNILPFDHTRVVLHDGDPNEPVSDYINANIIMPEFETKCNNSKPKKSYIATQGCLQNTVNDFWRMVFQENSRVIVMTTKEVERGKSKCVKYWPDEYALKEYGVMRVRNVKESAAHDYTLRELKLSKVGQGNTERTVWQYHFRTWPDHGVPSDPGGVLDFLEEVHHKQESIMDAGPVVVHESAGIGRTGTFIVIDILIDIIREKGVDCDIDVPKTIQMVRSQRSGMVQTEAQYRFIYMAVQHYIETLQRRIEEEQKSKRKGHEYTNIKYSLADQTSGDQSPLPPCTPTPPCAEMREDSARVYENVGLMQQQKSFR
